Measured values reported in patent publication EP1631829B1, “METHOD AND APPARATUS FOR CHARACTERIZATION OF INTERACTIONS” (GE Healthcare Bio-Sciences AB, priority 2003, dated 2004).

Target: T1, HSA (Homo sapiens, UniProt P02768)
T1 construct: purchased Sigma A 3782
Assay: two-sample (dual) gradient pulse injection SPR assay, site availability of drugs binding to HSA
Conditions: digitoxin and warfarin, 50 µM each, added individual responses vs mixture, 25 °C

T1 sequence (P02768 25-609): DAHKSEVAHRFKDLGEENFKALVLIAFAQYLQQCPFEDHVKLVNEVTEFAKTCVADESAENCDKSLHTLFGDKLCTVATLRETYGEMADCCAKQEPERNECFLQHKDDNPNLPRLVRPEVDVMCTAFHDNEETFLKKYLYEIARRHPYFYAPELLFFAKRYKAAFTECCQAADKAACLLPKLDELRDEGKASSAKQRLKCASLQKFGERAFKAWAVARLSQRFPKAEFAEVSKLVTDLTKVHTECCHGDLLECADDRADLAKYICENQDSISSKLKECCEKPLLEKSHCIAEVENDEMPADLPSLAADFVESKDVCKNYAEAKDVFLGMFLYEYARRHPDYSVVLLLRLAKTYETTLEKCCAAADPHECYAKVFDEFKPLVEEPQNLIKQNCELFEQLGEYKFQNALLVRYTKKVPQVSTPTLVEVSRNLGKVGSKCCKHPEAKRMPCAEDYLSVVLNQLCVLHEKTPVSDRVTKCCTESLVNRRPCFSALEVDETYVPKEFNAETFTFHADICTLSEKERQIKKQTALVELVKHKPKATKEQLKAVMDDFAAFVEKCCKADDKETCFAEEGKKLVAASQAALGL

Structure (SMILES): C[C@H]1O[C@@H](O[C@H]2[C@@H](O)C[C@H](O[C@H]3[C@@H](O)C[C@H](O[C@H]4CC[C@@]5(C)[C@H](CC[C@@H]6[C@@H]5CC[C@]5(C)[C@@H](C7=CC(=O)OC7)CC[C@]65O)C4)O[C@@H]3C)O[C@@H]2C)C[C@H](O)[C@@H]1O [Digitoxin, digitoxin]
- binding site relation on HSA: non-competitive binders
